Data set [1] is described as follows: Metabolic stability in Crab eating monkey liver microsome assessed as half life measured upto 60 min by UPLC-MS/MS analysis. It counts as ADME, Macaca fascicularis. To be noted: cynomolgus monkey, liver microsomes. In general terms: Liver microsomes are vesicles of endoplasmic reticulum, rich in cytochrome P450 enzymes.
Data set [2] concerns MV4-11. Nature of the data set: Induction of cell differentiation in human MV4-11 cells assessed as increase in CD11b expression at 10 uM measured after 7 days by flow cytometric analysis. The class given is functional, cell-based. To be noted: time 7.0 day. For orientation: In flow cytometry, cells or beads pass a laser one at a time.
Data set [3] can be described thus: Metabolic stability in Crab eating monkey liver assessed as intrinsic clearance measured upto 60 min by UPLC-MS/MS analysis. The class given is ADME, tissue-based, Macaca fascicularis. To be noted: cynomolgus monkey, read-out: CLH.
For data set [4], the system named is MV4-11. Nature of the data set: Antiproliferative activity against human MV4-11 cells assessed as reduction in cell viability measured for 3 days followed by replacement with fresh medium of compound and measured after 72 hrs by cell counting assay. Particulars: MV4-11, 72 h. It counts as functional, cell-based.
Data set [5] can be described thus: Metabolic stability in Sprague-Dawley rat liver microsome assessed as intrinsic clearance measured upto 60 min by UPLC-MS/MS analysis. The class given is ADME. To be noted: microsomes, 1 h.
Data set [6] is described as follows: Metabolic stability in CD-1 mouse liver assessed as intrinsic clearance measured upto 60 min by UPLC-MS/MS analysis. The class given is ADME, tissue-based. To be noted: read-out: CLH.
A short description of data set [7]: Total clearance in Sprague-Dawley rat at 5 mg/kg, iv. Particulars: in vivo. It counts as ADME, organism-based.
Data set [8] in a line: Metabolic stability in CD-1 mouse liver microsome assessed as compound remaining measured after 60 min by UPLC-MS/MS analysis. The class given is ADME. To be noted: liver microsomes, read-out: Stability.
Data set [9] in a line: AUC (0 to t) in Sprague-Dawley rat at 5 mg/kg, iv. To be noted: in vivo. The class given is ADME, organism-based. On the set-up: dose 5 mg/kg, route iv.
Data set [10] is described as follows: Total clearance in Sprague-Dawley rat at 15 mg/kg, po. The class given is ADME, organism-based. To be noted: in vivo.
Data set [11] has as its system HL-60. As to the kind of experiment: Antiproliferative activity against human […] assessed as cell growth inhibition measured for 72 hrs by MTT assay. It counts as functional, cell-based. Particulars: HL-60, 72 h. In general terms: Formazan colour is commonly taken as a measure of viable cells.
The species entered for data set [12] is Homo sapiens. As to the kind of experiment: Inhibition of CMGC (unknown origin) at 1 uM in presence of ATP at Km concentration by Mobility shift assay relative to control.
The nature of data set [13]: Metabolic stability in Sprague-Dawley rat liver assessed as intrinsic clearance measured upto 60 min by UPLC-MS/MS analysis. The class given is ADME, tissue-based. To be noted: read-out: CLH.
Data set [14] can be described thus: Metabolic stability in human liver microsome assessed as compound remaining measured after 60 min by UPLC-MS/MS analysis. The class given is ADME. Particulars: liver microsomes, read-out: Stability.

Molecules are shown by their SMILES. The source made the active and inactive calls.

Turning to `CN(C)CCOc1ccc2ncnc(NC3CCN(CC4CN(c5ccc(S(=O)(=O)C6CC6)cc5)C4)CC3)c2n1`, in data set [1], the half-life came out at 1.08 h. Moreover, in [2], the result was Active. Also, the CLint scaled in [3] amounted to 31.7 mL/min/kg; in data set [6], 28.2 mL/min/kg; in data set [13], 17.5 mL/min/kg. The IC50 is 300 nM in data set [4] and more than 10000 nM in data set [11]. The CLint in data set [5] stood at 9.7 µL/min/mg. This compound also came in with a CL in data set [7] of 34.27 mL/min/kg. For the same compound, the results for the remaining at 1 h in data set [8] and in data set [14] were 82% and 79%, respectively. In data set [9], the exposure AUC(0-t) is 1700 ng·h/mL. This compound also showed a CL/F in [10] of 179 mL/min/kg. Moreover, the inhibition in data set [12] is less than 25%.

As usually defined, the half-life is the time needed for the level to fall by half in the phase considered. As a reminder, the IC50 is the midpoint of a concentration-inhibition curve. One may read the AUC(0-t) as the area under the concentration-time curve up to a stated or last time point. One may read the CL/F as the apparent clearance, not corrected for the fraction that reaches the circulation. Usually inhibition stands for the relative decrease from the control value, in per cent.

Values taken from ChEMBL document CHEMBL5104196, “Discovery of Novel, Potent, and Selective Small-Molecule Menin-Mixed Lineage Leukemia Interaction Inhibitors through Attempting Introduction of Hydrophilic Groups” (J Med Chem, 2022).
